Reference: ChEMBL document CHEMBL5543142, “Discovery of YFJ-36: Design, Synthesis, and Antibacterial Activities of Catechol-Conjugated β-Lactams against Gram-Negative Bacteria” (J Med Chem, 2024)

Key:
[1] = AUC (0 to infinity) in ICR mouse at 20 mg/kg,iv administration measured upto 6 hrs by LC-MS/MS analysis; assay type: ADME, organism-based; conditions: in vivo
[2] = Clearance in ICR mouse at 20 mg/kg,iv administration measured upto 6 hrs by LC-MS/MS analysis; assay type: ADME, organism-based; conditions: in vivo
[3] = Half life in ICR mouse at 20 mg/kg,iv administration measured upto 6 hrs by LC-MS/MS analysis; assay type: ADME, organism-based; conditions: in vivo
[4] = MRT in ICR mouse at 20 mg/kg,iv administration measured upto 6 hrs by LC-MS/MS analysis; assay type: ADME, organism-based; conditions: in vivo
[5] = Volume of distribution at steady state in ICR mouse at 20 mg/kg,iv administration measured upto 6 hrs by LC-MS/MS analysis; assay type: ADME, organism-based; conditions: in vivo, read-out: Vdss
Acinetobacter baumannii [6] = test: Antibacterial activity against multidrug-resistant Acinetobacter baumannii BM-2023-D2-010 infected in ICR mouse assessed as survival rate at 40 mg/kg,iv after 1 and 5 hour of post-infection measured after 7 days relative to control; assay type: functional; conditions: time 7 day
Acinetobacter baumannii [7] = test: Antibacterial activity against multidrug-resistant Acinetobacter baumannii BM-2023-D2-010 infected in ICR mouse assessed as survival rate at 28 mg/kg,iv after 1 and 5 hour of post-infection measured after 7 days relative to control; assay type: functional; conditions: time 7 day
Acinetobacter baumannii [8] = test: Antibacterial activity against multidrug-resistant Acinetobacter baumannii BM-2023-D2-010 infected in ICR mouse assessed as survival rate at 19.6 mg/kg,iv after 1 and 5 hour of post-infection measured after 7 days relative to control; assay type: functional; conditions: time 7 day
Acinetobacter baumannii [9] = test: Antibacterial activity against multidrug-resistant Acinetobacter baumannii BM-2023-D2-010 infected in ICR mouse assessed as survival rate at 13.7 mg/kg,iv after 1 and 5 hour of post-infection measured after 7 days relative to control; assay type: functional; conditions: time 7 day
Acinetobacter baumannii [10] = test: Antibacterial activity against multidrug-resistant Acinetobacter baumannii BM-2023-D2-010 infected in ICR mouse assessed as survival rate at 9.6 mg/kg,iv after 1 and 5 hour of post-infection measured after 7 days relative to control; assay type: functional; conditions: time 7 day
Acinetobacter baumannii [11] = test: Antibacterial activity against multidrug-resistant Acinetobacter baumannii BM-2023-D2-010 infected in ICR mouse assessed as survival rate at 6.72 mg/kg,iv after 1 and 5 hour of post-infection measured after 7 days relative to control; assay type: functional; conditions: time 7 day
Acinetobacter baumannii [12] = test: Antibacterial activity against multidrug-resistant Acinetobacter baumannii BM-2023-D2-010 infected in ICR mouse assessed as survival rate at 4.71 mg/kg,iv after 1 and 5 hour of post-infection measured after 7 days relative to control; assay type: functional; conditions: time 7 day
Acinetobacter baumannii [13] = test: Antibacterial activity against multidrug-resistant Acinetobacter baumannii BM-2023-D2-010 infected in ICR mouse assessed as survival rate at 3.3 mg/kg,iv after 1 and 5 hour of post-infection measured after 7 days relative to control; assay type: functional; conditions: time 7 day
hERG (KCNH2) = hERG (KCNH2) (Homo sapiens, UniProt Q12809); test: Inhibition of hERG at 3 uM by whole cell Qpatch assay relative to control; assay type: toxicity
Chain of hERG (KCNH2) (Q12809 whole entry): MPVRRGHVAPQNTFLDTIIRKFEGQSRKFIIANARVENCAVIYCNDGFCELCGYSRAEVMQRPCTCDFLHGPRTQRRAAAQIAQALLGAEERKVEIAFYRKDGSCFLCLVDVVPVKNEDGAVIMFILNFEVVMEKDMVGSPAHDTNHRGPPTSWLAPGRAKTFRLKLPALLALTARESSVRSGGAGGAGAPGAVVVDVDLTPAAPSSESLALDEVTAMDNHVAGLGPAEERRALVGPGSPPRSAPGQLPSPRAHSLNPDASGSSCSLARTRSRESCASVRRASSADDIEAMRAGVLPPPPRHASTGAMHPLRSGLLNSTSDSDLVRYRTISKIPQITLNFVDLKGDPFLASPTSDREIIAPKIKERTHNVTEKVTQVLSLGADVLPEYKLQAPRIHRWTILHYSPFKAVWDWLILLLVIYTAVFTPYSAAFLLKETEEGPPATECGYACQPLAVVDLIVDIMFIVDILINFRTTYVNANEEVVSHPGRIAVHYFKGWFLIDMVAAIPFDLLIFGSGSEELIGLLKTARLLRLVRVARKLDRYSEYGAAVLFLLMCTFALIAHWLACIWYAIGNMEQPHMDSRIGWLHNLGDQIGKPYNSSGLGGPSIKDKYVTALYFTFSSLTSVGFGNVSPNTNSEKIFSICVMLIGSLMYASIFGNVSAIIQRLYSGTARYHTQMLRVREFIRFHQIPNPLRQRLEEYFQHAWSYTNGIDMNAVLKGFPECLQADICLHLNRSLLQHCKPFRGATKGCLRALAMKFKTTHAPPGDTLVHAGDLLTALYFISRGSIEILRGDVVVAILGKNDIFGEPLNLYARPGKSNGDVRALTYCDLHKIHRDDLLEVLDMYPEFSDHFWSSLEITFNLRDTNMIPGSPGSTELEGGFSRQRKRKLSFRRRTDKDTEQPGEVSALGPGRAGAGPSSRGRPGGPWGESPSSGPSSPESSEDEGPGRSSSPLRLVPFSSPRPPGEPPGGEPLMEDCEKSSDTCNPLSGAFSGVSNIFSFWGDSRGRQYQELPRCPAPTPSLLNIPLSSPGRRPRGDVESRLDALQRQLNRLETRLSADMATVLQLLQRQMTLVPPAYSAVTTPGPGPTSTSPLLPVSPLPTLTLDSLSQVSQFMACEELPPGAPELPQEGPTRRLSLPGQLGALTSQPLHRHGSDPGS

| SMILES | AUC(0-inf) [1] [ng·h/mL] | clearance [2] [mL/min/kg] | half-life [3] [min] | MRT [4] [min] | Vd [5] [L/kg] | Activity (Acinetobacter baumannii [6]) [%] | Activity (Acinetobacter baumannii [7]) [%] | Activity (Acinetobacter baumannii [8]) [%] | Activity (Acinetobacter baumannii [9]) [%] | Activity (Acinetobacter baumannii [10]) [%] | Activity (Acinetobacter baumannii [11]) [%] | Activity (Acinetobacter baumannii [12]) [%] | Activity (Acinetobacter baumannii [13]) [%] | inhibition at 3 µM (hERG (KCNH2)) [%] |
| --- | --- | --- | --- | --- | --- | --- | --- | --- | --- | --- | --- | --- | --- | --- |
| CC(C)(O/N=C(\C(=O)N[C@@H]1C(=O)N2C(C(=O)[O-])=C(C[N+]3(CCNC(=O)c4ccc(O)c(O)c4Cl)CCCC3)CS[C@H]12)c1csc(N)n1)C(=O)[O-].[Na+] | 11600 | 29.2 | 16.2 | 16.8 | 0.488 | 100 | 100 | 100 | 100 | 70 | 50 | 20 | 0 | – |
| COc1cc(N)c(Cl)cc1C(=O)N[C@H]1CCN(CCCOc2ccc(F)cc2)C[C@H]1OC [REL-CISAPRIDE] | – | – | – | – | – | – | – | – | – | – | – | – | – | 97.8 |
